In assay [1] the test system is phospho-ERK1/2 (Thr202/Tyr204) in MIA PaCa-2 cell line. As to the kind of experiment: pERK and ERK Western blot analysis, MIA PaCa-2. The class given is cell-based. Particulars: Homo sapiens; MIA PaCa-2 cell line, 4 hours after incubation; read-out: 2D pERK IC50. The procedure: MIA PaCa-2 (ATCC), NCI-H358 (ATCC), NCI-H23 (ATCC), SW837 and A549 (ATCC) cells were plated in 24-well plates at 2×10^5cells/well in RPMI growth medium containing 10% FBS and 1× Penicillin Streptomycin. They were then incubated at 37° C. overnight. The following day, the test compound was administered to the cells by using 1000× compound stock solution prepared in DMSO at various concentrations. After administration of the compound, the cells were then incubated at 37° C. for 4 hours. Upon completion, the cells were washed with PBS and protein was collected in Laemmli sample buffer (1×; VWR International). Proteins in cell lysate were separated by SDS-PAGE and transferred to Odyssey nitrocellulose membranes (Licor) with iblot® dry blotting transfer system (ThermoFisher). Nonspecific binding was blocked by incubating membranes with Intercept Blocking Buffer (Licor) for 1 hour at room temperature with gentle shaking. The membranes were then incubated overnight at 4° C. with primary antibodies rabbit anti-phospho p44/42 MAPK (Erk1/2) (1:2,000, Cell Signaling, 4370) and mouse anti-p44/42 MAPK (Erk1/2) (1:1,000, Cell Signaling, 4696) diluted in Intercept Blocking Buffer containing 0.1% Tween 20. After washing 3 times with TBS-T, the membranes were incubated with IRDye® 800CW goat anti-rabbit IgG (1:20,000, Licor) or IRDye® 680CW goat anti-mouse IgG (1:20,000, Licor) for 1 hour. After TBS-T washes, membranes were rinsed in TBS and scanned on Odyssey® CLx Imaging System (Licor). The bands were quantified using Image Studio™ Software (Licor).
(In general: A western blot detects proteins with antibodies after separation by electrophoresis.)

Assay [2] concerns the target T1, KRAS-G12C mutant (Homo sapiens, UniProt P01116, G12C). As to the kind of experiment: TR-FRET assay of SOS1-assisted KRAS GDP/GTP exchange. Type of assay: biochemical. How it is done:
GDP form of 6*His tagged KRAS-G12C was diluted to 40 nM and incubated with 8 nM LanthaScreen™ Elite Terbium-anti-HIS Antibody (Thermo, catalog number PV5863) in reaction buffer containing 20 mM Tris, pH 7.5, 100 mM NaCl, 1 mM DTT, 0.1% Tween20, 0.05% BSA, 2% DMSO, 1 mM MgCl2. After 1 hour-incubation at 4° C., proteins were placed in 384 well plate (PerkinElmer, PROXIPLATE-384 PLUS). Then compounds with different concentrations were added to the proteins. BODIPY labeled GTP (Thermo, catalog number G12411) and SOS-1 (or reaction buffer as control) were then added to reactions at 200 nM and 1 μM to trigger the exchange of GDP to BODIPY-GTP. TR-FRET emission signals were determined at 520 nm and 620 nm on a Envision® Multilabel Plate Reader (PerkinElmer) using a 337 nm laser as light source. All data were analyzed and plotted using Graph Pad Prism software (version 8.0.1). Raw TR-FRET data were converted to percentage of inhibition (relative to DMSO) using the following equations: […]
b) For a given test compound concentration X:
Signal (X)=Emission ratio (SOS-1 & GTP)—Emission ratio (buffer & GTP)
c) Percentage of inhibition at concentration X=[1−Signal(X)/Signal (DMSO)]*100%
The […] values were determined by nonlinear regression of plots of [inhibitor] vs. percentage of inhibition with variable slope. Table 4 summarizes inhibition of SOS1-assisted GDP/GTP exchanging activity of KRAS-G12C mutant with exemplary compounds of the present disclosure.

The target in assay [3] is T1, KRAS-G12C mutant. As to the kind of experiment: Gel shift assay (SDS-PAGE) for covalent modification of KRAS G12C. Type of assay: binding. Particulars: 0.5 μM compound, 1 μM GDP-bound KRAS G12C, 25° C., 5 minutes, shift indicative of covalent cysteine conjugation. The procedure: 0.5 μM compounds were incubated with 1 μM GDP-bound untagged KRAS (G12C or wild type) proteins at 25° C. for 5 minutes in 40 μl reaction buffer (50 mM Tris, pH 7.5, 100 mM NaCl, 1 mM MgCl2, 1 mM DTT). The reactions were quenched with 10 μI SDS-PAGE sample loading buffer (250 mM Tris-HCl, pH 6.8, 10% SDS, 0.5% bromophenol blue, 50% glycerol and 50 mM DTT) and then analyzed via SDS-PAGE using 4%-20% gradient polyacrylamide gel followed by Coomassie blue stain.
FIG. 1 illustrates mobility change of KRAS-G12C mutant or wild type proteins on SDS-PAGE after 5 minutes of coincubation at 25° C. with exemplary compounds of the present disclosure, indicative of covalent cysteine conjugation.
Table 3 summarizes molecular weight shift of KRAS-G12C mutant on SDS-PAGE after 5 mins of coincubation at 25° C. with exemplary compounds of the present disclosure, indicative of covalent cysteine conjugation.

SMILES strings stand for the structures.

In general, IC50 refers to the concentration at which inhibition is half-maximal.

On to `C=CC(=O)N1CCN(c2nc(OC[C@@H]3CCCN3C)nc3c2CO[C@@H](c2cccc4cccc(Cl)c24)C3)C[C@@H]1CC#N` [Compound 6, 2-((S)-1-acryloyl-4-((R)-7-(8-chloronaphthalen-1-yl)-2-(((S)-1-methylpyrrolidin-2-yl)methoxy)-7,8-dihydro-5H-pyrano[4,3-d]pyrimidin-4-yl)piperazin-2-yl)acetonitrile], for which the IC50 is more than 100 nM in assay [1] and 7130 nM at KRAS-G12C mutant [2].

Regarding `C=C(F)C(=O)N1CCN(c2nc(OCC34CCCN3CCC4)nc3c2CO[C@@H](c2cccc4c2CCCC4)C3)C[C@@H]1CC#N` [Compound 68, 2-((S)-1-(2-fluoroacryloyl)-4-((R)-2-((tetrahydro-1H-pyrrolizin-7a(5H)-yl)methoxy)-7-(5,6,7,8-tetrahydronaphthalen-1-yl)-7,8-dihydro-5H-pyrano[4,3-d]pyrimidin-4-yl)piperazin-2-yl)acetonitrile], at KRAS-G12C mutant [3], the “KRAS-G12C molecular weight shift” value is given as “No”. The IC50 is more than 100 nM in assay [1] and 2540 nM against KRAS-G12C mutant [2].

`C=C(F)C(=O)N1CCN(c2nc(OC[C@@H]3CCCN3C)nc3c2CO[C@@H](c2cccc4cccc(Cl)c24)C3)C[C@@H]1CC#N` [Compound 19, 2-((S)-4-((R)-7-(8-chloronaphthalen-1-yl)-2-(((S)-1-methylpyrrolidin-2-yl)methoxy)-7,8-dihydro-5H-pyrano[4,3-d]pyrimidin-4-yl)-1-(2-fluoroacryloyl)piperazin-2-yl)acetonitrile]: the “KRAS-G12C molecular weight shift” value on KRAS-G12C mutant [3] was “No”. The IC50 in assay [1] is more than 100 nM; at KRAS-G12C mutant [2], 80800 nM.

With `C=C(F)C(=O)N1CCN(c2nc(OCC34CCCN3CCC4)nc3c2CO[C@@H](c2cccc4cccc(Cl)c24)C3)C[C@@H]1CC#N` (single isomer, unassigned) [Compound 54], at KRAS-G12C mutant [3], the “KRAS-G12C molecular weight shift” value is “No”. The values for the IC50 (in assay [1]; against KRAS-G12C mutant [2]) were more than 100 nM and 2350 nM, respectively.

Consider `C=C(F)C(=O)N1CCN(c2nc(OCC34CCCN3CCC4)nc3c2[C@@H](C)O[C@@H](c2cccc4c2CCCC4)C3)C[C@@H]1CC#N` [Compound 60, 2-((S)-1-(2-fluoroacryloyl)-4-((5R,7R)-5-methyl-2-((tetrahydro-1H-pyrrolizin-7a(5H)-yl)methoxy)-7-(5,6,7,8-tetrahydronaphthalen-1-yl)-7,8-dihydro-5H-pyrano[4,3-d]pyrimidin-4-yl)piperazin-2-yl)acetonitrile], for which the “KRAS-G12C molecular weight shift” value on KRAS-G12C mutant [3] is listed as “No”. The results for the IC50 (in assay [1]; at KRAS-G12C mutant [2]) were more than 100 nM and 4200 nM, respectively.

Consider `C=C(F)C(=O)N1CCN(c2nc(OCC34CCCN3CCC4)nc3c2COC(c2cccc4c2CCCC4)C3)C[C@@H]1CC#N` (stereo partly drawn) [Compound 67, 2-((2S)-1-(2-fluoroacryloyl)-4-(2-((tetrahydro-1H-pyrrolizin-7a(5H)-yl)methoxy)-7-(5,6,7,8-tetrahydronaphthalen-1-yl)-7,8-dihydro-5H-pyrano[4,3-d]pyrimidin-4-yl)piperazin-2-yl)acetonitrile], for which, on KRAS-G12C mutant [3], the “KRAS-G12C molecular weight shift” value is on record as “Yes”. Further, the IC50 in assay [1] is 10 to 100 nM; on KRAS-G12C mutant [2], 36 nM.

With `C=C(F)C(=O)N1CCN(c2nc(OC[C@@H]3CCCN3C)nc3c2COC(c2cccc4ccccc24)C3)C[C@@H]1CC#N` (stereo partly drawn) [Compound 1, 2-((2S)-1-(2-fluoroacryloyl)-4-(2-(((S)-1-methylpyrrolidin-2-yl)methoxy)-7-(naphthalen-1-yl)-7,8-dihydro-5H-pyrano[4,3-d]pyrimidin-4-yl)piperazin-2-yl)acetonitrile], the values for the IC50 (in assay [1]; at KRAS-G12C mutant [2]) were more than 100 nM and 698 nM, respectively.

With `C=C(F)C(=O)N1CCN(c2nc(OCC34CCCN3CCC4)nc3c2[C@@H](C)O[C@@H](c2cccc4cccc(C)c24)C3)C[C@@H]1CC#N` [Compound 65, 2-((S)-1-(2-fluoroacryloyl)-4-((5R,7R)-5-methyl-7-(8-methylnaphthalen-1-yl)-2-((tetrahydro-1H-pyrrolizin-7a(5H)-yl)methoxy)-7,8-dihydro-5H-pyrano[4,3-d]pyrimidin-4-yl)piperazin-2-yl)acetonitrile], the “KRAS-G12C molecular weight shift” value on KRAS-G12C mutant [3] is given as “No”. Further, the IC50 in assay [1] is more than 100 nM; on KRAS-G12C mutant [2], 11600 nM.

Consider `C=C(F)C(=O)N1CCN(c2nc(OCC3(CN(C)C)CC3)nc3c2COC(c2cccc4cccc(Cl)c24)C3)C[C@@H]1CC#N` (stereo partly drawn) [Compound 70, 2-((2S)-4-(7-(8-chloronaphthalen-1-yl)-2-((1-((dimethylamino)methyl)cyclopropyl)methoxy)-7,8-dihydro-5H-pyrano[4,3-d]pyrimidin-4-yl)-1-(2-fluoroacryloyl)piperazin-2-yl)acetonitrile], for which, on KRAS-G12C mutant [3], the “KRAS-G12C molecular weight shift” value was “Yes”. Moreover, the half-maximal inhibitory concentration (IC50) was 10 to 100 nM in assay [1] and 303 nM at KRAS-G12C mutant [2].

In the case of `C=CC(=O)N1CCN(c2nc(OC[C@@H]3CCCN3C)nc3c2COC(c2cccc4cccc(Cl)c24)C3)C[C@@H]1CC#N` (stereo partly drawn) [Compound 3, 2-((2S)-1-acryloyl-4-(7-(8-chloronaphthalen-1-yl)-2-(((S)-1-methylpyrrolidin-2-yl)methoxy)-7,8-dihydro-5H-pyrano[4,3-d]pyrimidin-4-yl)piperazin-2-yl)acetonitrile], the half-maximal inhibitory concentration (IC50) in assay [1] was 1 to 10 nM; at KRAS-G12C mutant [2], 29 nM.

As for `C=CC(=O)N1CCN(c2nc(OC[C@@H]3C[C@H](F)CN3C)nc3c2CO[C@@H](c2cccc4ccccc24)C3)C[C@@H]1CC#N` [Compound 10, 2-((S)-1-acryloyl-4-((R)-2-(((2S,4S)-4-fluoro-1-methylpyrrolidin-2-yl)methoxy)-7-(naphthalen-1-yl)-7,8-dihydro-5H-pyrano[4,3-d]pyrimidin-4-yl)piperazin-2-yl)acetonitrile], the values for the IC50 (in assay [1]; on KRAS-G12C mutant [2]) were more than 100 nM and 13900 nM, respectively.

Consider `C=C(F)C(=O)N1CCN(c2nc(OCC34CCCN3CCC4)nc3c2CO[C@@H](c2cccc4cccc(C)c24)C3)C[C@@H]1CC#N` (single isomer, unassigned) [Compound 57], for which the “KRAS-G12C molecular weight shift” value at KRAS-G12C mutant [3] was “No”. In addition, the results for the IC50 (in assay [1]; at KRAS-G12C mutant [2]) were more than 100 nM and 4860 nM, respectively.

For `C=CC(=O)N1CCN(c2nc(OC[C@@H]3CCCN3C)nc3c2CO[C@@H](c2cccc4ccccc24)C3)C[C@@H]1CC#N` [Compound 5, 2-((S)-1-acryloyl-4-((R)-2-(((S)-1-methylpyrrolidin-2-yl)methoxy)-7-(naphthalen-1-yl)-7,8-dihydro-5H-pyrano[4,3-d]pyrimidin-4-yl)piperazin-2-yl)acetonitrile], the values for the IC50 (in assay [1]; on KRAS-G12C mutant [2]) were more than 100 nM and 2150 nM, respectively.
